In patent US20260138978A1, “POSITIVE ALLOSTERIC MODULATORS OF THE MUSCARINIC ACETYLCHOLINE RECEPTOR M1” (Vanderbilt University, priority 2022, published 2026):
pEC50: −log10 of the molar value.

How the values were obtained:
human mAChRM1 [1] = target: T1, human mAChRM1 (Homo sapiens, UniProt P11229); assay: mAChR M1 cell-based functional assay (calcium mobilization), agonist activity upon compound addition, Emax relative to acetylcholine maximum; conditions: for pEC50 / Agonist Activity Human M1 EC50: calcium mobilization upon compound addition; for Emax: relative to the maximum for acetylcholine
T1 construct: host or cells: CHO-K1
T1 sequence (P11229 1-460): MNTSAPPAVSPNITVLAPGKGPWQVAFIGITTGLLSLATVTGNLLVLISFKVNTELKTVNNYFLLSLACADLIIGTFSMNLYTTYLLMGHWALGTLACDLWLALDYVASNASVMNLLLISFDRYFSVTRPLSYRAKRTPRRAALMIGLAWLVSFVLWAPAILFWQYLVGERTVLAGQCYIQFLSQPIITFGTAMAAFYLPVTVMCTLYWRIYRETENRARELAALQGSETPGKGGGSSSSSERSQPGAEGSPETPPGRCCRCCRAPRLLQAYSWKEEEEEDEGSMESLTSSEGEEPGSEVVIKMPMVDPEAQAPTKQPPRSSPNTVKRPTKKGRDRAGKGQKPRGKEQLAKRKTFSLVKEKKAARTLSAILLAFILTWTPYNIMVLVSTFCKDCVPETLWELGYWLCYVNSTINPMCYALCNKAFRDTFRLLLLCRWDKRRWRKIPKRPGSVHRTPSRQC
Outline: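 CHO-K1 cells stably expressing human M1 were loaded with Fluo-4 AM for 50 min at 37 °C. Compound was added 4 s into a 300 s FDSS read at 1 Hz, over 11-point 1:3 dilution curves. Agonism was taken as a concentration-dependent rise in calcium fluorescence ratio, with Emax expressed relative to the acetylcholine maximum from four-parameter logistic fits.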

human mAChRM1 [2] = target: T1, human mAChRM1; assay: mAChR M1 cell-based functional assay (calcium mobilization), positive allosteric modulator activity: increase in the EC20 acetylcholine response; conditions: for Emax: PAM mode; for pEC50: increase in the EC20 acetylcholine response, read-out: PAM Activity Human M1 EC50
Outline: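 CHO-K1 cells stably expressing human M1, loaded with Fluo-4 AM; calcium flux recorded on FDSS at 1 Hz over 300 s following compound addition. PAM activity is the concentration-dependent increase of an EC20 acetylcholine response; EC50 and Emax from four-parameter logistic fits of 11-point, 1:3 concentration series.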

pEC50 (human mAChRM1 [1])	Emax (human mAChRM1 [1])	Emax (human mAChRM1 [2])	pEC50 (human mAChRM1 [2])	Agonist Activity Human M1 EC50 (human mAChRM1 [1])	Structure (SMILES)
5.43	54%	83%	7.21	–	COCCOc1cc(-c2ccc(C(C)(C)O)c3nn(C)cc23)cc(F)c1CN1Cc2cccnc2C1=O [Compound 126, 6-(2-fluoro-4-(7-(2-hydroxypropan-2-yl)-2-methyl-2H-indazol-4-yl)-6-(2-methoxyethoxy)benzyl)-5,6-dihydro-7H-pyrrolo[3,4-b]pyridin-7-one]
–	–	50%	≤ 5.00	inactive	Cn1cc2c(C(C)(C)O)cc(-c3ccc(CN4Cc5ncccc5C4=O)c(F)c3)cc2n1 [Compound 21, 6-(2-fluoro-4-(4-(2-hydroxypropan-2-yl)-2-methyl-2H-indazol-6-yl)benzyl)-6,7-dihydro-5H-pyrrolo[3,4-b]pyridin-5-one]
≤ 5.00	17%	65%	6.49	–	Cn1cc2cc(-c3ccc(CN4Cc5ncccc5C4=O)c(F)c3)cc(C(C)(C)O)c2n1 [Compound 34, 6-(2-fluoro-4-(7-(2-hydroxypropan-2-yl)-2-methyl-2H-indazol-5-yl)benzyl)-6,7-dihydro-5H-pyrrolo[3,4-b]pyridin-5-one]
–	–	48%	≤ 5.00	inactive	Cn1cc2c(C(C)(C)O)cc(-c3ccc(CN4Cc5ncccc5C4=O)cc3)cc2n1 [Compound 23, 6-(4-(4-(2-hydroxypropan-2-yl)-2-methyl-2H-indazol-6-yl)benzyl)-6,7-dihydro-5H-pyrrolo[3,4-b]pyridin-5-one]
–	–	47%	≤ 5.00	inactive	Cc1cc(-c2cc(C(C)(C)O)c3cn(C)nc3c2)cc(F)c1CN1Cc2ncccc2C1=O [Compound 20, 6-(2-fluoro-4-(4-(2-hydroxypropan-2-yl)-2-methyl-2H-indazol-6-yl)-6-methylbenzyl)-6,7-dihydro-5H-pyrrolo[3,4-b]pyridin-5-one]
5.56	22%	78%	7.23	–	Cn1cc2c(-c3cc(F)c(CN4Cc5ncccc5C4=O)c(F)c3)ccc(C(C)(C)O)c2n1 [Compound 1, 6-(2,6-difluoro-4-(7-(2-hydroxypropan-2-yl)-2-methyl-2H-indazol-4-yl)benzyl)-6,7-dihydro-5H-pyrrolo[3,4-b]pyridin-5-one]
–	–	65%	≤ 5.00	inactive	Cc1cc(-c2ccc(C(C)(C)O)cc2)ccc1CN1Cc2cccnc2C1=O [Compound 129, 6-((4′-(2-hydroxypropan-2-yl)-3-methyl-[1,1′-biphenyl]-4-yl)methyl)-5,6-dihydro-7H-pyrrolo[3,4-b]pyridin-7-one]
–	–	73%	6.00	inactive	CC(C)(O)c1ccc(-c2cc(F)c(CN3Cc4ncccc4C3=O)c(F)c2)c2c1OCO2 [Compound 87, 6-(2,6-difluoro-4-(7-(2-hydroxypropan-2-yl)benzo[d][1,3]dioxol-4-yl)benzyl)-6,7-dihydro-5H-pyrrolo[3,4-b]pyridin-5-one]
–	–	77%	6.35	inactive	Cn1cc2c(-c3cc(F)c(CN4Cc5cccc(F)c5C4=O)c(F)c3)ccc(C(C)(O)C(F)F)c2n1 (stereo not drawn) [Compound 158, 2-(4-(7-(1,1-difluoro-2-hydroxypropan-2-yl)-2-methyl-2H-indazol-4-yl)-2,6-difluorobenzyl)-7-fluoroisoindolin-1-one]
–	–	73%	5.41	inactive	CN(C)c1cc(-c2ccc(C(C)(C)O)c3nn(C)cc23)cc(F)c1CN1Cc2ncccc2C1=O [Compound 77, 6-(2-(dimethylamino)-6-fluoro-4-(7-(2-hydroxypropan-2-yl)-2-methyl-2H-indazol-4-yl)benzyl)-6,7-dihydro-5H-pyrrolo[3,4-b]pyridin-5-one]
